Assay [1] concerns gp120 hydrolysis by salivary IgA and serum IgA. In kind it is biochemical, human.
In assay [2] the target is gp120 of HIV-1 strain ZA009 (HIV-1, strain ZA009).
In assay [3] the target is gp120 of HIV-1 strain BR004 (HIV-1, strain BR004).
In assay [4] the target is gp120 of HIV-1 strain SF162 (HIV-1, strain SF162).

As for `c1cnc2c(c1)ccc1cccnc12` [1,10 phenanthroline], the “inhibition of gp120 hydrolysis by serum and salivary IgA” value (from here on “inhibition of gp120 hydrolysis”) in assay [1] is on record as “did not detectably inhibit”.

Turning to `O=C(O)CN(CCN(CC(=O)O)CC(=O)O)CC(=O)O` [EDTA], the “inhibition of gp120 hydrolysis” value in assay [1] is “did not detectably inhibit”.

Turning to `NC(=O)CI` [iodoacetamide], the “inhibition of gp120 hydrolysis” value in assay [1] is reported as “did not detectably inhibit”.

With MAb b12 (antibody), the IC80, HIV neutralization (% decrease of p24; PHA-stimulated PBMC hosts) is more than 20 µg/mL in assay [2], more than 20 µg/mL in assay [3] and 14.1 µg/mL in assay [4].

On to pepstatin A, for which the “inhibition of gp120 hydrolysis” value in assay [1] is reported as “did not detectably inhibit”.

(Values after patent publication US20090117115A1 (priority 2006, published 2009).)
